Assay results taken from patent US9637447B2, “Lauflumide and the enantiomers thereof, method for preparing same and therapeutic uses thereof” (priority 2011, dated 2017).
Read-outs that look alike come from different tables or passages of the source.

Experiments:
young Wistar rats [1] = test: T-maze test of waiting ability (ADHD model, impulsivity); format: in vivo, rat; conditions: for waiting ability in the T-maze test compared to the control: administered before the test, mazindol 1, 3, 10 mg/kg intraperitoneally, lauflumide 64, 128 mg/kg orally, D-lauflumide 64, 128, 256 mg/kg orally; for improving waiting ability, effectiveness versus methylphenidate and d-amphetamine / improving waiting ability, effectiveness versus modafinil: T-maze; for improving waiting ability, effectiveness versus methylphenidate and d-amphetamine: methylphenidate 3 mg/kg, d-amphetamine 1 mg/kg intraperitoneally; for improving waiting ability, effectiveness versus modafinil: modafinil 64 and 128 mg/kg orally
Text: The test of waiting ability in a T-maze consists in offering a rat a choice between a quick and immediate food reward and a large but delayed reward. In adult Wistar rats, numerous antidepressants such as serotonin or noradrenalin reuptake inhibitors increase the number of choices for the large but delayed reward, indicating an improvement in waiting ability, i.e., a decrease in impulsivity.
The goal of the present study is to examine whether lauflumide in the form of its racemic mixture or its D form ((+) enantiomer), administered in 3 doses before the test, improves waiting ability in young Wistar rats subjected to the T-maze test. An improvement in waiting ability by this compound would indicate that this compound reduces impulsivity and, consequently, could be useful in the treatment of ADHD. Methylphenidate and d-amphetamine are used as a reference product in the same experiment.
Male Wistar AF rats (Centre d′Elevage Rene Janvier, France) are used, aged 22 days at the beginning of the experiment and between 30 and 42 days at the time the molecules are administered.
The experiments were carried out in two identical T-mazes (FIG. 1) made of opaque gray plastic tubes (inner diameter: 7.5 cm), consisting of a starting alley (30 cm long), a transparent plastic box, (10 cm wide, 10 cm deep and 10 cm high) and two arms (35 cm long) each leading to a rectangular black plastic box (18 cm wide, 30 cm deep, 10 cm high). The removable, gray plastic guillotine doors can be inserted in vertical slots located at the entrance to the starting alley and at the end of each arm. One of the goal boxes (left or right, depending on the rat) is continuously provided with a large reward, the other with a small reward. The large and small rewards consist of 5 and 1 pellets, respectively (20 mg, Technical & Scientific Equipment GMBH, Germany). The pellets are placed in a translucent cup before each test.
The T-maze test is a validated test which makes it possible, by extrapolation to man, to verify the effectiveness of pharmacological agents effective in ADHD.
1st phase: habituation. The animals are first subjected to 2 to 6 habituation sessions of 5 minutes each. The rat is gently placed in the starting alley, which is then closed off by a guillotine door inserted in the slot (reference c0 in FIG. 1). The animal is allowed to freely explore the device and to eat the rewards placed in the cups.
2nd phase: pre-training. A door is placed in slot c2 near each goal box and then the rat is placed in the starting alley. When it enters one of the two arms, a door is inserted behind it in slot c1 near the choice point and the door placed in slot c2 is removed. Once the animal enters the goal box, the door is replaced in slot c2. The rat is removed from the goal box as soon as it eats the pellets. The animal is then returned to its cage for 2 to 3 minutes. One to three times per day, each rat is subjected to five test sessions. In four to 12 sessions, the rat chooses the arm leading to the large reward in more than 80% of the tests. The training phase then begins.
3rd phase: training. During training the rats 1 to 4 times/day undergo sessions of 5 tests during which a delay is introduced before access to the large reward is granted. After a door is placed in slot c2 near each goal box, the rat is placed in the starting alley. When it enters one of the two arms, a second door is inserted behind it in slot c1 near the choice point, so that the rat choosing the training arm with the large reward can be held in this arm for 30 seconds—the waiting period—before having access to the reinforcement. If not, if the animal chooses the arm leading to the small reward, the door placed in slot c2 is immediately removed, allowing the animal to enter the goal box. The testing of the drugs begins when the animal chooses the large reward delayed by 30 seconds in 2 tests in 5 (or fewer) during two consecutive sessions and in 1 test in 5 (or fewer) in the following session. […]

[2] = Comparative effectiveness stated in the description (no method given)
young Wistar rats [3] = conditions: cited from earlier work; for waiting ability in the T-maze test: young rats

NC(=O)C[S+]([O-])C(c1ccc(F)cc1)c1ccc(F)cc1 (racemic) [Lauflumide]
waiting ability in the T-maze test compared to the control (young Wistar rats [1]): improve waiting ability
effectiveness relative to adrafinil [2]: 20 times
effectiveness relative to modafinil [2]: 4 times

CC(N)Cc1ccccc1 (racemic) [amphetamine, D,L-amphetamine]
waiting ability in the T-maze test (young Wistar rats [3]): improved waiting ability

NC(=O)C[S@@+]([O-])C(c1ccc(F)cc1)c1ccc(F)cc1 [D-Lauflumide]
improving waiting ability, effectiveness versus methylphenidate and d-amphetamine (young Wistar rats [1]): at least as effective as methylphenidate and d-amphetamine
improving waiting ability, effectiveness versus modafinil (young Wistar rats [1]): more effective than modafinil
waiting ability in the T-maze test compared to the control (young Wistar rats [1]): improve waiting ability
effectiveness versus the racemic mixture of lauflumide [2]: more effective than the racemic mixture of lauflumide

OC1(c2ccc(Cl)cc2)c2ccccc2C2=NCCN21 (centres unmarked) [Mazindol, mazindol]
improving waiting ability, effectiveness versus methylphenidate and d-amphetamine (young Wistar rats [1]): at least as effective as methylphenidate and d-amphetamine
improving waiting ability, effectiveness versus modafinil (young Wistar rats [1]): more effective than modafinil
waiting ability in the T-maze test compared to the control (young Wistar rats [1]): improve waiting ability

CNCC[C@@H](Oc1ccccc1C)c1ccccc1 [atomoxetine]
waiting ability in the T-maze test (young Wistar rats [3]): improved waiting ability

Clc1cccc(Cl)c1N=C1NCCN1 [clonidine]
waiting ability in the T-maze test (young Wistar rats [3]): improved waiting ability

CNCCCN1c2ccccc2CCc2ccccc21 [desipramine]
waiting ability in the T-maze test (young Wistar rats [3]): improved waiting ability

COC(=O)C(c1ccccc1)C1CCCCN1 (centres unmarked) [methylphenidate]
number of choices for the large but delayed reward (young Wistar rats [3]; adult Wistar rats, spontaneously hypertensive rats (SHR) and Wistar Kyoto (WKY) rats): not
number of choices for the large but delayed reward (young Wistar rats [3]; young Wistar rats): increases the number of choices for the large but delayed reward
waiting ability in the T-maze test (young Wistar rats [3]): improved waiting ability
